# Source: BindingDB's records for doi:10.1074/jbc.M113.480517 (University of Iowa, 2013)
# Experiments:
# Experiment in all cases: DNA Methylation Assay
# Details in all cases: pH 7.5
# [1] = biological target: T1, DNA (cytosine-5)-methyltransferase 1 [351-1600] (Homo sapiens, UniProt P26358)
# T1 construct: 351-1600
# Experimental: (§1) Assays (0.1 ml) were conducted in 96-well black half-area plates in either a Wallac VICTOR2 or Biotek Synergy Neo plate reader at 37 °C in 10 mM Tris, pH 7.5, 100 mM potassium glutamate, 1 mM MgCl2, 1 mM DTT, 0.1 mg/ml BSA, and 5% glycerol. […] Data were fitted using Prism (GraphPad Software, Inc).
# [2] = biological target: T2, DNA (cytosine-5)-methyltransferase 3A [590-912] (Homo sapiens, UniProt Q9Y6K1)
# T2 construct: 590-912
# Experimental: as §1
# [3] = biological target: Orphan methyltransferase M.SssI (Spiroplasma monobiae (strain ATCC 33825 / MQ-1), UniProt P15840)
# Experimental: as §1
# T2 sequence (Q9Y6K1 590-912): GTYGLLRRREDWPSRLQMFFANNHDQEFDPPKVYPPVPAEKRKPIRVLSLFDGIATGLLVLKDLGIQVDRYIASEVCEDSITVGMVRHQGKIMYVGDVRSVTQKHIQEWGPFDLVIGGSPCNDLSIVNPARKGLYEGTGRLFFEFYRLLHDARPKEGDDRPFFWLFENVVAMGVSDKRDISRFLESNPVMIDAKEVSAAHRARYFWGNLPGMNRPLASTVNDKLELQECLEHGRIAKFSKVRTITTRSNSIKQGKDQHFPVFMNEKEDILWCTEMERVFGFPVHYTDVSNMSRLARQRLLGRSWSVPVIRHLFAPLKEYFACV
# Chain of Orphan methyltransferase M.SssI (P15840 whole entry): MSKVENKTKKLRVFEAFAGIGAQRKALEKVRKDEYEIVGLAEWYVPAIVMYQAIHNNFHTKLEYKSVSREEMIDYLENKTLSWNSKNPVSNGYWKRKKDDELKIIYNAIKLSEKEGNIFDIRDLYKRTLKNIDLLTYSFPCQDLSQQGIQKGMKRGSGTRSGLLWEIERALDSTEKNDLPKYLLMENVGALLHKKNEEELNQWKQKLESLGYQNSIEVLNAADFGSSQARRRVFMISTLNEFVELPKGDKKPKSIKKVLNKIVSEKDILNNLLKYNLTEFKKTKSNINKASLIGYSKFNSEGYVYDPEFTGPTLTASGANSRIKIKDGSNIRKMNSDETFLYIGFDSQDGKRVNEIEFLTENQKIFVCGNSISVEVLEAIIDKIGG
# T1 sequence (P26358 351-1600): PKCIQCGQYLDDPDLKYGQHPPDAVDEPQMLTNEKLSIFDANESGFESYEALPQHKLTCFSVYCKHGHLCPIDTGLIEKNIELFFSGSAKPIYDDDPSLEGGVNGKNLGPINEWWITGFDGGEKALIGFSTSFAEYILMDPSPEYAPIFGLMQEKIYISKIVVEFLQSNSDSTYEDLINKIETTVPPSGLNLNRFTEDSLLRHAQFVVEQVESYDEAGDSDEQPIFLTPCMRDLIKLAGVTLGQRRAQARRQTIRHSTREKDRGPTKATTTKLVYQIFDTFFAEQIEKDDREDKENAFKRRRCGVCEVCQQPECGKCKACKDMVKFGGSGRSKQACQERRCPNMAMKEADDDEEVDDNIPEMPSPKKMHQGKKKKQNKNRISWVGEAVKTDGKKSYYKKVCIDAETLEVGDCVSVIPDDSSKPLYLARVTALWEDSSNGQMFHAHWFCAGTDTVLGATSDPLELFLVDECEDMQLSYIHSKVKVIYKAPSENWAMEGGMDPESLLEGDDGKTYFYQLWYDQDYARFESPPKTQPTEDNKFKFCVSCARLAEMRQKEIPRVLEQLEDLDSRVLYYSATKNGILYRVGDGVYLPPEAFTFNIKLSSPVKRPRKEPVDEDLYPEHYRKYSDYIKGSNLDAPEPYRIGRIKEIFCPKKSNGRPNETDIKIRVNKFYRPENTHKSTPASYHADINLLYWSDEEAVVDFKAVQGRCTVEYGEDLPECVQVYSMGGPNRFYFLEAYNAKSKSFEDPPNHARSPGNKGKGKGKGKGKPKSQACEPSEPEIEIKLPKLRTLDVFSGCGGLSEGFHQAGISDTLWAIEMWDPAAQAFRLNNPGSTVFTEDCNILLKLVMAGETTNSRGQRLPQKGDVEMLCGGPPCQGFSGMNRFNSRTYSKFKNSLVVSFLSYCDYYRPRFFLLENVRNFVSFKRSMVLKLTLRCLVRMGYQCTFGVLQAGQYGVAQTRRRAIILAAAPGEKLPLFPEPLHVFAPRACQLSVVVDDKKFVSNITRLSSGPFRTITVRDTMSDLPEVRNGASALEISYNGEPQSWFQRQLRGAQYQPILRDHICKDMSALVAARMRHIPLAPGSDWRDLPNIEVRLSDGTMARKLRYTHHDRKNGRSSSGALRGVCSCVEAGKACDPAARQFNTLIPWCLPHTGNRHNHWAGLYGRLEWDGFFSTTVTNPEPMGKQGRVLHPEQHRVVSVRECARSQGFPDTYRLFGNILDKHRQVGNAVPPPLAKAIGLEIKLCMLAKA
smiles,measurement,setting,value
CC(=O)NCCc1ccc(O)c(-c2c(O)c(O)c3c(c2O)C(=O)c2c(cc(O)c(C(=O)O)c2C(=O)O)C3=O)c1,IC50,[1],19.1 µM
same,IC50,[2],50.5 µM
same,IC50,[3],53.6 µM
